Data published in article PMC11083148, “Structure–Activity Relationship Studies on Highly Functionalized Pyrazole Hydrazones and Amides as Antiproliferative and Antioxidant Agents” (International Journal of Molecular Sciences, 2024).

Assays:
washed platelets [1] = assay: ROS assay in platelets (DCFH-DA, thrombin-stimulated); format: cell-based, human; conditions: 0.1 U/mL thrombin, mean ± SD, read-out: IC50 ROS production inhibition
Experimental: (§1) The antioxidant properties of acylhydrazones 10–13 and pyrazolyl amides 14–22 were tested by evaluating their inhibition of platelet aggregation and ROS production (Figure 3, Table S1). In fact, human platelets could represent a fast and low-cost biological model to screen compounds as anticancer, anti-inflammatory, and antiaggregating agents. Moreover, ROS production inhibition, related to human platelet aggregation, could provide a good indication of the anti-inflammatory and antioxidant properties of the newly synthesized compounds [47, 50, 51, 52]. N-acetylcysteine (NAC) and acetyl salicylic acid (ASA) were used as reference drugs for antioxidant and antiaggregant activities, respectively.
(§2) Freshly drawn venous blood from healthy volunteers from “Centro Trasfusionale” (IRCCS Policlinico San Martino, Genoa, Italy) was collected into a 130 mM aqueous trisodium citrate anticoagulant solution (9:1). The donors claimed to not have taken drugs known to interfere with platelet function during the two weeks prior to blood collection and gave their informed consent. Whole blood was centrifuged at 100× g for 20 min to afford platelet-rich plasma that was then spun at 1100× g for 15 min. The obtained pellet was washed once with a pH 5.2 ACD solution (75 mM trisodium citrate, 42 mM citric acid, and 136 mM glucose), centrifuged at 1100× g for 15 min, and then re-suspended in pH 7.4 Hepes buffer (145 mM NaCl, 5 mM KCl, 1 mM MgSO4, 10 mM glucose, and 10 mM HEPES).
2′,7′-Dichlorofluorescein diacetate (DCFH-DA) and thrombin were purchased from Sigma-Aldrich/Merck Millipore. DMSO solutions of 10–22 were diluted in saline immediately before each experiment. ROS production was quantified by DCFH-DA, a ROS-sensitive probe that yields, upon oxidation, the fluorescent adduct DCF that is trapped inside the cells. Briefly, washed platelets (1.0 × 10^8/mL), pre-incubated with saline solutions of 10–22 for 15 min at 37 °C, were stimulated by 0.1 U/mL thrombin. Incubation was stopped by cooling samples in an ice bath, and then samples were immediately analyzed in a Merck Millipore Bioscience Guava easyCyte flow cytometer (Merk Millipore, Burlington, MA, USA). The reported IC50 values represent the molar concentration of the compounds able to inhibit 50% of the maximal aggregation induced by the agonist and are calculated as the percentage inhibition of the maximal aggregation measured in the presence of the agent compared with the measure in a control sample containing saline, carried out under the same conditions. The IC50 values were extrapolated from nonlinear regression analysis of concentration–response curves (three points) using MS Excel software (Microsoft 365 suite). Each IC50 value is the mean of six independent experiments.

GM-6114 = assay: MTT assay, cytotoxicity on normal fibroblasts; format: cell-based; conditions: human, 48 h, 10 µM
A549 = assay: MTT assay, antiproliferative activity; format: cell-based; conditions: 48h; for activity at 10 µM: Homo sapiens, read-out: Mean Growth Percentage
Experimental: (§3) Pyrazole acylhydrazones 10–13 and amides 14–22 were tested by MTT assay to evaluate their antiproliferative and cytotoxicity properties against a panel of eight tumor cell lines and normal fibroblasts.
(§4) All reagents were purchased from EuroClone, Milan, Italy). The following cell lines were used for MTT assays: SKOV-3 (ovarian adenocarcinoma, ATCC, Manassas, VA, USA); MCF-7 (breast adenocarcinoma, Biologic Bank and Cell Factory, IRCCS Policlinico San Martino, Genoa, Italy); Hep-G2 (hepatocellular carcinoma, ATCC, Manassas, VA, USA); SK-MEL28 (skin melanoma, Biologic Bank and Cell Factory, IRCCS Policlinico San Martino, Genoa, Italy), GM-6114 (embryonic human fibroblast, ATCC, Manassas, VA, USA); MDA-MB231 (breast adenocarcinoma, Biologic Bank and Cell Factory, IRCCS Policlinico San Martino, Genoa, Italy); HeLa (cervical adenocarcinoma, Biologic Bank and Cell Factory, IRCCS Policlinico San Martino, Genoa, Italy); SK-BR3 (breast andenocarcinoma, Biologic Bank and Cell Factory, IRCCS Policlinico San Martino, Genoa, Italy); A549 (lung carcinoma, Biologic Bank and Cell Factory, IRCCS Policlinico San Martino, Genoa, Italy); HUVEC (Human Umbilical Vein Endothelial Cells, ATCC, Manassas, VA, USA). All cell lines were grown in their medium with 10% FBS, 2 mM Glutamine, and 1% penstrep and incubated at 37 °C in 5% CO2 in a humidified environment. The cell lines were plated in 96-well plates at an adequate number to reach 80–90% confluence at the end of the assay. 16 h after cell plating, a 10 mM DMSO stock solution of the compounds was diluted in growth medium and added at a final working concentration of 10 μM. After 48h of incubation, a 2 mg/mL PBS solution of MTT (3-(4,5-dimethyl-2-thiazolyl)-2,5-diphenyl-2H-tetrazolium bromide) was added (30 μL/well). After 4h, the supernatant was removed, and the Formazan precipitates were dissolved in DMSO (100 μL/well). The 96-well plates were incubated for 20 min, and absorbance was measured at 570 nm using a plate reader. The results are expressed as a percentage ratio over control samples (100%) in which the cells were incubated with the same amount of DMSO but without compounds. Each value is the mean of three independent experiments run in six replicates.

Hep-G2 = assay: MTT assay, antiproliferative activity; format: cell-based; conditions: for Mean growth percentage at 10 µM: Homo sapiens, HepG2, 48h
Experimental: as §3, §4

SK-BR3 = assay: MTT assay, antiproliferative activity; format: cell-based; conditions: for Mean growth percentage at 10 µM: Homo sapiens, SK-BR-3, 48h
Experimental: as §3, §4

MDA-MB231 = assay: MTT assay, antiproliferative activity; format: cell-based; conditions: for Mean growth percentage at 10 µM: Homo sapiens, MDA-MB-231, 48h
Experimental: as §3, §4

SKMEL28 = assay: MTT assay, antiproliferative activity; format: cell-based; conditions: 48h; for Mean growth percentage at 10 µM: Homo sapiens, SK-MEL-28, 10 µM
Experimental: as §3, §4
(§5) Each IC50 value is the mean of three independent experiments run in duplicate.

HeLa = assay: MTT assay, antiproliferative activity; format: cell-based; conditions: 10 µM, 48h; for activity at 10 µM: Homo sapiens, read-out: Mean Growth Percentage
Experimental: as §3, §4, §5

SKOV3 = assay: MTT assay, antiproliferative activity; format: cell-based; conditions: 48h; for Mean growth percentage at 10 µM: Homo sapiens, SK-OV-3, 10 µM
Experimental: as §3, §4, §5

MCF7 = assay: MTT assay, antiproliferative activity; format: cell-based; conditions: 10 µM, 48h; for mean growth percentage (cell growth remaining vs control) at 10 µM: Homo sapiens
Experimental: as §3, §4, §5

washed platelets [2] = assay: Platelet aggregation (thrombin-induced, Born's method); format: cell-based; conditions: Homo sapiens, 0.1 U/mL thrombin, mean ± SD, read-out: IC50 Aggregation inhibition
Experimental: as §1, §2
Thrombin was purchased from Sigma-Aldrich/Merck Millipore. A DMSO solution of compounds 10–22 was diluted in saline immediately before each experiment and added to the washed platelets (3.0 × 10^8/mL) at 37 °C. After 3 min, 0.1 U/mL thrombin was added, and platelet aggregation was quantified according to Born’s method using a Bio-Data Aggregometer (Bio-Data Corporation, Horsham, PA, USA). The IC50 values were calculated as detailed above.

| Structure (SMILES) | IC50 (washed platelets [1]; Homo sapiens, Platelet) [µM] | Mean Growth Percentage (GM-6114) [%] | activity at 10 µM (A549) [%] | Mean growth percentage at 10 µM (Hep-G2) [%] | Mean growth percentage at 10 µM (SK-BR3) [%] | Mean growth percentage at 10 µM (MDA-MB231) [%] | Mean growth percentage at 10 µM (SKMEL28) [%] | activity at 10 µM (HeLa) [%] | Mean growth percentage at 10 µM (SKOV3) [%] | mean growth percentage (cell growth remaining vs control) at 10 µM (MCF7) [%] | IC50 (washed platelets [2]) [µM] | further results |
| --- | --- | --- | --- | --- | --- | --- | --- | --- | --- | --- | --- | --- |
| COc1ccc(/C=N/NC(=O)c2c(N)n[nH]c2Nc2ccccc2)cc1 [10a, (E)-3-amino-N′-(4-methoxybenzylidene)-5-(phenylamino)-1H-pyrazole-4-carbohydrazide] | 111 ± 9 | 110.40 | 103 | 115 | 95.5 | 99.1 | 86.7 | 98.4 | 104 | 95.1 | 204 ± 12 | melting point: 227 to 232 °C |
| COc1ccc(/C=N/NC(=O)c2c(N)nn(C)c2Nc2ccccc2)cc1OC [11b, (E)-3-amino-N′-(3,4-dimethoxybenzylidene)-1-methyl-5-(phenylamino)-1H-pyrazole-4-carbohydrazide] | 113 ± 7 | 104.95 | 94.8 | 116 | 86 | 85.7 | 93 | 99.5 | 100 | 94.8 | 129 ± 10 |  |
| COc1ccc(/C=N/NC(=O)c2c(N)nn(C)c2Nc2ccccc2)cc1Oc1ccccc1 [11c, (E)-3-amino-N′-(4-methoxy-3-phenoxybenzylidene)-1-methyl-5-(phenylamino)-1H-pyrazole-4-carbohydrazide] | 148 ± 13 | 105.27 | 91.7 | 113 | 83.1 | 93.4 | 87.6 | 101 | 110 | 84.5 | 841 ± 43 |  |
| COc1ccc(/C=N/NC(=O)c2c(Nc3ccccc3)nn(C)c2N)cc1 [12a, (E)-5-amino-N′-(4-methoxybenzylidene)-1-methyl-3-(phenylamino)-1H-pyrazole-4-carbohydrazide] | 113 ± 7 | 100.38 | 97.1 | 111 | 95 | 97.9 | 76.2 | 94.8 | 102 | 88.5 | 265 ± 23 |  |
| COc1ccc(/C=N/NC(=O)c2c(Nc3ccccc3)nn(C)c2N)cc1Oc1ccccc1 [12c, (E)-5-amino-N′-(4-methoxy-3-phenoxybenzylidene)-1-methyl-3-(phenylamino)-1H-pyrazole-4-carbohydrazide] | 193 ± 16 | 104.08 | 98.5 | 111 | 82.1 | 100 | 94.6 | 85.2 | 104 | 88.3 | 331 ± 14 |  |
| COc1ccc(/C=N/NC(=O)c2c(Nc3ccccc3)nn(CC(O)c3ccccc3)c2N)cc1 (centres unmarked) [13a, (E)-5-amino-1-(2-hydroxy-2-phenylethyl)-N′-(4-methoxybenzylidene)-3-(phenylamino)-1H-pyrazole-4-carbohydrazide] | 213 ± 17 | 99.43 | 94.5 | 85.9 | 91.8 | 96.4 | 81.8 | 83.7 | 93.8 | 81 | 883 ± 39 |  |
| CC(=O)Oc1ccccc1C(=O)O [ASA, acetyl salicylic acid, reference compound] |  |  |  |  |  |  |  |  |  |  | 438 |  |
| N.N.[Cl][Pt][Cl] [CisPt, cisplatin, reference compound] |  |  |  |  |  |  |  |  |  |  |  | Mean Growth Percentage (A549; 10 µM): 59.09%; Mean Growth Percentage (Hep-G2; 10 µM, 48h): 38.07%; Mean Growth Percentage (SK-BR3; 10 µM, 48h): 70.59%; Mean Growth Percentage (MDA-MB231; 10 µM, 48h): 86.07%; Mean Growth Percentage (SKMEL28; 10 µM): 44.40%; Mean Growth Percentage (HeLa): 29.33%; Mean Growth Percentage (SKOV3; 10 µM): 36.83%; Mean Growth Percentage (MCF7): 72.74% |
| CC(=O)N[C@@H](CS)C(=O)O [NAC, N-acetylcysteine, reference compound] |  |  |  |  |  |  |  |  |  |  |  | IC50 (washed platelets [1]): 872 µM |
